According to patent publication US8901087B2, “Selective glycosidase inhibitors and uses thereof” (priority 2010, dated 2014):
Like-named read-outs stand apart in the source and are kept apart here.

Target: human O-GlcNAcase (Homo sapiens (Human), UniProt O60502)
Experiment: Fluorescence-based assay for determination of KI values for inhibition of O-GlcNAcase activity
Type: biochemical
Experimental: Assay for Determination of KI Values for Inhibition of O-GlcNAcase Activity
Experimental Procedure for Kinetic Analyses
Enzymatic reactions are carried out in a reaction containing 50 mM NaH2PO4, 100 mM NaCl and 0.1% BSA (pH 7.0) using 2 mM 4-Methylumbelliferyl N-acetyl-β-D-glucosaminide dihydrate (Sigma M2133) dissolved in ddH2O, as a substrate. The amount of purified human O-GlcNAcase enzyme used in the reaction is 0.7 nM. Test compound of varying concentrations is added to the enzyme prior to initiation of the reaction. The reaction is performed at room temperature in a 96-well plate and is initiated with the addition of substrate. […] The slope of product production is determined for each concentration of compound tested and plotted, using standard curve fitting algorithms for sigmoidal dose response curves. The values for a four parameter logistic curve fit of the data are determined.

[1] = purified human O-GlcNAcase, 4-Methylumbelliferyl N-acetyl-β-D-glucosaminide substrate, pH 7.0, Cheng-Prusoff, read-out: Fluorescence-based hOGA Ki

Chain of human O-GlcNAcase (O60502 whole entry): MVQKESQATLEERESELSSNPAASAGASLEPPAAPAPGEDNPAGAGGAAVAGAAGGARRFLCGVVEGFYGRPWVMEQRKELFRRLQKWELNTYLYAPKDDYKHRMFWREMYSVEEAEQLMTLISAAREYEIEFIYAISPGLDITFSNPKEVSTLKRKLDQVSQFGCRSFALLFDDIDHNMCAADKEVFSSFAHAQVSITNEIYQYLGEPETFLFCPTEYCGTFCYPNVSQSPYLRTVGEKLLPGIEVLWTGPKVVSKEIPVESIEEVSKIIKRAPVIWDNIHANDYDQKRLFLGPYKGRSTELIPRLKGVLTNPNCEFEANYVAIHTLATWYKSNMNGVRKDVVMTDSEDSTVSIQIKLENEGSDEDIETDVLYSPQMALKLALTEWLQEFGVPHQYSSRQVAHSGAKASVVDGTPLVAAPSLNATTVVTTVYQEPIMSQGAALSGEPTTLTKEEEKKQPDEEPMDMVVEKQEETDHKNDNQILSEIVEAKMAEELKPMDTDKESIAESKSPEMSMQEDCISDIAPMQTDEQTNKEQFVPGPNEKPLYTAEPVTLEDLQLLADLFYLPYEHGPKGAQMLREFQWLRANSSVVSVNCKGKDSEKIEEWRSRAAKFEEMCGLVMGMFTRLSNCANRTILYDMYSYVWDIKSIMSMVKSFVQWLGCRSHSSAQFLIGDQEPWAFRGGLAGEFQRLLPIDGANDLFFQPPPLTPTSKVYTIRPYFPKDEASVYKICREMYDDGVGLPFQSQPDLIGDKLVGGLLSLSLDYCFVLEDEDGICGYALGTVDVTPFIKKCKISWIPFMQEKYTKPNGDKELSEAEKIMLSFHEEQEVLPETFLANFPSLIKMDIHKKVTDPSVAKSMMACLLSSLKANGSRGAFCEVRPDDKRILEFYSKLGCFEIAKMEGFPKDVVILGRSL

Compound | Ki [1] | Ki
CCCC[C@H](O)[C@H]1O[C@@H]2SC(N(C)C)=N[C@@H]2[C@@H](O)[C@@H]1O (single isomer, unassigned) [Example 71] | 9.12 nM | –
CN(C)C1=N[C@@H]2[C@@H](O)[C@H](O)[C@@H](C(C)(C)O)O[C@@H]2S1 [Example 4, (3aR,5S,6S,7R,7aR)-2-(dimethylamino)-5-(2-hydroxypropan-2-yl)-5,6,7,7a-tetrahydro-3aH-pyrano[3,2-d]thiazole-6,7-diol] | 3.1 nM | –
CCN(C)C1=N[C@@H]2[C@@H](O)[C@H](O)[C@@H]([C@@H](O)C(F)(F)F)O[C@@H]2S1 (single isomer, unassigned) [Example 211] | 0.44 nM | –
C=C[C@H](O)[C@H]1O[C@@H]2SC(N3CCC3)=N[C@@H]2[C@@H](O)[C@@H]1O (single isomer, unassigned) [Example 80] | 0.5 nM | –
C[C@@H](O)[C@H]1O[C@@H]2SC(N(C)C)=N[C@@H]2[C@@H](O)[C@@H]1O [Example 104, (3aR,5R,6S,7R,7aR)-2-(dimethylamino)-5-((R)-1-hydroxyethyl)-5,6,7,7a-tetrahydro-3aH-pyrano[3,2-d]thiazole-6,7-diol] | 3.63 nM | –
CNC1=N[C@@H]2[C@@H](O)[C@H](O)[C@@H](C(C)(O)C(F)(F)F)O[C@@H]2S1 (stereo partly drawn) [Example 159, (3aR,5S,6S,7R,7aR)-2-(methylamino)-5-(1,1,1-trifluoro-2-hydroxypropan-2-yl)-5,6,7,7a-tetrahydro-3aH-pyrano[3,2-d]thiazole-6,7-diol] | 1.25 nM | –
CNC1=N[C@@H]2[C@@H](O)[C@H](O)[C@@H]([C@@H](O)C(F)(F)F)O[C@@H]2S1 [Example 95, (3aR,5S,6S,7R,7aR)-2-(methylamino)-5-((R)-2,2,2-trifluoro-1-hydroxyethyl)-5,6,7,7a-tetrahydro-3aH-pyrano[3,2-d]thiazole-6,7-diol] | 0.16 nM | –
CC(C)(O)[C@H]1O[C@@H]2SC(N3CCC3)=N[C@@H]2[C@@H](O)[C@@H]1O [Example 77, (3aR,5S,6S,7R,7aR)-2-(azetidin-1-yl)-5-(2-hydroxypropan-2-yl)-5,6,7,7a-tetrahydro-3aH-pyrano[3,2-d]thiazole-6,7-diol] | 16.3 nM | –
CNC1=N[C@@H]2[C@@H](O)[C@H](O)[C@@H](C(C)(C)O)O[C@@H]2S1 [Example 3, (3aR,5S,6S,7R,7aR)-5-(2-Hydroxypropan-2-yl)-2-(methylamino)-5,6,7,7a-tetrahydro-3aH-pyrano[3,2-d]thiazole-6,7-diol] | 0.9 nM | –
C[C@H](O)[C@H]1O[C@@H]2SC(N3CCC3)=N[C@@H]2[C@@H](O)[C@@H]1O (single isomer, unassigned) [Example 76] | 0.18 nM | –
C=CC[C@H](O)[C@H]1O[C@@H]2SC(N3CCC3)=N[C@@H]2[C@@H](O)[C@@H]1O (single isomer, unassigned) [Example 82] | 5.84 nM | –
O[C@H]1[C@H](O)[C@@H]([C@H](O)C(F)(F)F)O[C@@H]2SC(NCCF)=N[C@H]12 [Example 215, (3aR,5S,6S,7R,7aR)-2-(2-fluoroethylamino)-5-((S)-2,2,2-trifluoro-1-hydroxyethyl)-5,6,7,7a-tetrahydro-3aH-pyrano[3,2-d]thiazole-6,7-diol] | 1.8 nM | –
C[C@H](O)[C@H]1O[C@@H]2SC(N3CCCC3)=N[C@@H]2[C@@H](O)[C@@H]1O (single isomer, unassigned) [Example 91] | 0.53 nM | –
CON(C)C1=N[C@@H]2[C@@H](O)[C@H](O)[C@@H]([C@H](C)O)O[C@@H]2S1 (single isomer, unassigned) [Example 51] | – | 5.1 nM
C=C(C)[C@H](O)[C@H]1O[C@@H]2SC(N(C)C)=N[C@@H]2[C@@H](O)[C@@H]1O (single isomer, unassigned) [Example 65] | 0.45 nM | –
CON(C)C1=N[C@@H]2[C@@H](O)[C@H](O)[C@@H]([C@@H](O)C(F)(F)F)O[C@@H]2S1 [Example 98, (3aR,5S,6S,7R,7aR)-2-(methoxy(methyl)amino)-5-((R)-2,2,2-trifluoro-1-hydroxyethyl)-5,6,7,7a-tetrahydro-3aH-pyrano[3,2-d]thiazole-6,7-diol] | 1.43 nM | –
C[C@H](O)[C@H]1O[C@@H]2SC(NCC3CC3)=N[C@@H]2[C@@H](O)[C@@H]1O (single isomer, unassigned) [Example 53] | 0.7 nM | –
C=C[C@H](O)[C@H]1O[C@@H]2SC(NCCC)=N[C@@H]2[C@@H](O)[C@@H]1O (single isomer, unassigned) [Example 42] | 1.03 nM | –
C=CC[C@H](O)[C@H]1O[C@@H]2SC(N(C)C)=N[C@@H]2[C@@H](O)[C@@H]1O (single isomer, unassigned) [Example 67] | 1.25 nM | –

Compound | Ki [1] | Ki
CN(C)C1=N[C@@H]2[C@@H](O)[C@H](O)[C@@H]([C@@H](O)C(F)(F)F)O[C@@H]2S1 [Example 11, (3aR,5S,6S,7R,7aR)-2-(dimethylamino)-5-((R)-2,2,2-trifluoro-1-hydroxyethyl)-5,6,7,7a-tetrahydro-3aH-pyrano[3,2-d]thiazole-6,7-diol] | 0.3 nM | –
C[C@H](O)[C@H]1O[C@@H]2SC(N(C)C)=N[C@@H]2[C@@H](O)[C@@H]1O [Example 1, (3aR,5R,6S,7R,7aR)-2-(Dimethylamino)-5-((S)-1-hydroxyethyl)-5,6,7,7a-tetrahydro-3aH-pyrano[3,2-d]thiazole-6,7-diol] | 0.17 nM | –
CNC1=N[C@@H]2[C@@H](O)[C@H](O)[C@@H]([C@H](C)O)O[C@@H]2S1 (single isomer, unassigned) [Example 13] | 0.4 nM | –
CN(C)C1=N[C@@H]2[C@@H](O)[C@H](O)[C@@H](C(C)(O)C(F)(F)F)O[C@@H]2S1 (mixture of isomers) [Example 203, (3aR,5S,6S,7R,7aR)-2-(dimethylamino)-5-((S)-1,1,1-trifluoro-2-hydroxypropan-2-yl)-5,6,7,7a-tetrahydro-3aH-pyrano[3,2-d]thiazole-6,7-diol] | 3.16 nM | –
CNC1=N[C@@H]2[C@@H](O)[C@H](O)[C@@H]([C@@H](O)C(F)F)O[C@@H]2S1 [Example 191, (3aR,5S,6S,7R,7aR)-5-((R)-2,2-difluoro-1-hydroxyethyl)-2-(methylamino)-5,6,7,7a-tetrahydro-3aH-pyrano[3,2-d]thiazole-6,7-diol] | 0.14 nM | –
CCCNC1=N[C@H]2C(O[C@H]([C@@H](O)CC)[C@@H](O)[C@@H]2O)S1 (single isomer, unassigned) [Example 47] | 6.4 nM | –
C[C@H](O)[C@H]1O[C@@H]2SC(NCCF)=N[C@@H]2[C@@H](O)[C@@H]1O [Example 141, (3aR,5R,6S,7R,7aR)-2-(2-Fluoroethylamino)-5-((S)-1-hydroxyethyl)-5,6,7,7a-tetrahydro-3aH-pyrano[3,2-d]thiazole-6,7-diol] | 0.82 nM | –
C=CC[C@H](O)[C@H]1O[C@@H]2SC(NC)=N[C@@H]2[C@@H](O)[C@@H]1O (single isomer, unassigned) [Example 25] | 0.7 nM | –
C=CC(O)C1O[C@@H]2SC(N(C)CC)=N[C@@H]2[C@@H](O)[C@@H]1O (single isomer, unassigned) [Example 61] | 2.46 nM | –
CCN(C)C1=N[C@H]2C(O[C@H]([C@H](C)O)[C@@H](O)[C@@H]2O)S1 (single isomer, unassigned) [Example 57] | 0.33 nM | –
CCNC1=N[C@@H]2[C@@H](O)[C@H](O)[C@@H]([C@@H](O)CC)O[C@@H]2S1 [Example 105, (3aR,5R,6S,7R,7aR)-2-(ethylamino)-5-((S)-1-hydroxypropyl)-5,6,7,7a-tetrahydro-3aH-pyrano[3,2-d]thiazole-6,7-diol] | 3.4 nM | –
CCNC1=N[C@@H]2[C@@H](O)[C@H](O)[C@@H]([C@H](C)O)O[C@@H]2S1 (single isomer, unassigned) [Example 27] | 0.12 nM | –
CC[C@H]1O[C@@H]2SC(NC)=N[C@@H]2[C@@H](O)[C@@H]1O [Example 8, (3aR,5R,6S,7R,7aR)-5-Ethyl-2-(methylamino)-5,6,7,7a-tetrahydro-3aH-pyrano[3,2-d]thiazole-6,7-diol] | 0.68 nM | –
CNC1=N[C@@H]2[C@@H](O)[C@H](O)[C@@H]([C@@H](C)F)O[C@@H]2S1 (single isomer, unassigned) [Example 181] | 0.8 nM | –
CCC[C@H](O)[C@H]1O[C@@H]2SC(N(C)C)=N[C@@H]2[C@@H](O)[C@@H]1O (single isomer, unassigned) [Example 69] | 9.36 nM | –
CCCNC1=N[C@@H]2[C@@H](O)[C@H](O)[C@@H]([C@@H](O)C(F)(F)F)O[C@@H]2S1 [Example 97, (3aR,5S,6S,7R,7aR)-2-(propylamino)-5-((R)-2,2,2-trifluoro-1-hydroxyethyl)-5,6,7,7a-tetrahydro-3aH-pyrano[3,2-d]thiazole-6,7-diol] | 0.17 nM | –
CCCNC1=N[C@@H]2[C@@H](O)[C@H](O)[C@@H]([C@H](C)O)O[C@@H]2S1 [Example 2, (3aR,5R,6S,7R,7aR)-5-((S)-1-hydroxyethyl)-2-(propylamino)-5,6,7,7a-tetrahydro-3aH-pyrano[3,2-d]thiazole-6,7-diol] | 0.05 nM | –
C=C[C@H](O)[C@H]1O[C@@H]2SC(N(C)C)=N[C@@H]2[C@@H](O)[C@@H]1O (single isomer, unassigned) [Example 63] | 0.22 nM | –
